Data on 5 compounds can be found in PMC5547389, “Structure-activity relationships and molecular docking studies of chromene and chromene based azo chromophores: A novel series of potent antimicrobial and anticancer agents” (EXCLI Journal, 2017).

≈ marks a conversion by molar mass, not a printed value.

Series [1] relates to human hepatocellular carcinoma (HEPG-2). Description: Cytotoxic screening. It counts as cell-based. The conditions noted are these: HepG2, read-out: IC50 HepG-2. The procedure, abridged:
(§1)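 Read-out is crystal violet staining (the text also names MTT), lysis in 33 % acetic acid, A590, with untreated cells as 100 %. IC50 was estimated graphically from survival curves.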

Series [2] concerns human breast adenocarcinoma (MCF-7). The series is described as follows: Cytotoxic screening. It counts as cell-based. The conditions noted are these: Homo sapiens, MCF7; read-out: IC50 MCF-7. The procedure, abridged:
as §1

Series [3] relates to Human colon carcinoma (HCT-116). Description: Cytotoxic screening. Particulars: Homo sapiens, HCT-116; read-out: IC50 HCT-116. It counts as cell-based. The procedure, abridged: as §1
Series [4] deals with primary mixed neuronal in vitro culture. Description: Acute toxicity, LDH release. Format: cell-based, rat. As to the method:
In vitro experiments were carried out at the University of Prince Edward Island and approved by the Animal Care and Biosafety Committees, which adheres to the guidelines of the Canadian Council on Animal Care (protocol #14-041 and 15-028). Mixed neocortical cultures, containing both neurons and glia, were prepared from fetal rats at 17-18 days gestation. Briefly, embryonic tissue was extracted from untimed pregnant Sprague-Dawley rats by caesarean section and transferred to ice-cold Hanks Balanced Salt Solution (Gibco). Cortical brain tissue was carefully isolated by fine dissection using aseptic techniques. Cortices were minced in cold HBSS using a sterile razor blade prior to digestion with 0.0125 % trypsin. Dissociated cells were plated in poly-L-lysine (1 mg/ml, Sigma Aldrich) coated 96 well plates at a seeding density of 50000 cells/well in warm (37 °C) Dulbecco's Modified Eagle Medium (Gibco) containing 10 % iron-supplemented bovine calf serum (Hyclone) and 1 % antibiotic/antimycotic (Gibco). Cultures were allowed to adhere overnight in a humidified 37 °C incubator having 5 % CO2 and atmospheric oxygen. The following day, the media was replaced with warmed Neurobasal A Medium (Gibco) containing 0.5 mM L-glutamine (Gibco) and supplemented with 1 % B27, N2 and antibiotic/antimycotic (Gibco). Half-volume media changes were made every 4 days thereafter with experiments being carried out on 14-16 day old cultures. After 14 days in culture, the medium was replaced with deoxygenated unsupplemented glucose-free Neurobasal A containing either 10 or 100 µM of the novel compounds T3, T4, T5, T8, T9, T11, or T12. Control wells contained glucose-free medium plus vehicle - either 0.1 % ethanol or 0.1 % DMSO. Cultures were transferred to a humidified 37 °C incubator having 5 % CO2, 1.1 % O2 and the balance N2 for a period of 24 hours. Following OGD, an equal volume of normal supplemented Neurobasal A containing identical drug concentrations was added and cultures were transferred to normoxic conditions (5 % CO2 and atmospheric oxygen) for an additional 24 h. Cell viability was assessed by measuring LDH release from damaged cells. Control cultures were prepared in separate plates having supplemented Neurobasal A and being maintained in 5 % CO2 and atmospheric oxygen for the duration of the experiment. Toxicity was assessed in wells treated with 10 µM of each of the test compounds listed above. After 24 h an equal volume of culture media as added to each well to account for handling effects on experimental outcomes. Toxicity was assessed after an additional 24 h in culture by measuring LDH release from treated cells. At the end of each experiment, cell injury was assessed by measuring lactate dehydrogenase (LDH) released from damaged cells into the culture medium (Cytoscan LDH Assay, G Biosciences). LDH measurements represent the average of 7 replicate treatments/dose. The effect of OGD and drug treatments on LDH was expressed as a percent of LDH release compared to OGD and vehicle groups. […]
Lactate dehydrogenase (LDH) release in the medium is an enzymatic indicator that illustrates the loss of membrane integrity, apoptosis, or necrosis of a cell. Using a primary mixed neuronal in vitro culture, the cytotoxic effect of the chromene-based compounds (4a, 4c, 7c, 12c, 12k, 13g, and 13h) was assessed by lactate dehydrogenase (LDH) release from cells pretreated with different concentrations after 24 and 48 h of incubation (Figure 9A-C(Fig. 9)). […]
In general terms: LDH in the medium is a marker of cell lysis.

For orientation: melting point means the temperature, or range, at which the solid turns liquid. In general, IC50 refers to the concentration at which inhibition is half-maximal. Consider `N#CC1=C(N)Oc2c(N)cc3ccccc3c2C1c1ccc(Cl)cc1` (stereo not drawn) [4b, 3,5-diamino-1-(4-chlorophenyl)-1H-benzo[f]chromene-2-carbonitrile], for which the melting point stood at 187 °C. The IC50 in series [1] is 1 µg/mL (≈ 2.88 µM). In addition, in series [2], the IC50 turned out to be 1 µg/mL (≈ 2.88 µM). In addition, the IC50 in series [3] is 1.1 µg/mL (≈ 3.16 µM).
With `N#CC1=C(N)Oc2c(ccc3c(N)cccc23)C1c1ccc(F)cc1` (stereo not drawn) [7c], the “LDH release more than vehicle” value in series [4] (10 µM, 24 hrs of incubation) was 2-3 folds. Also, the “LDH release” value in series [4] (100 µM, 24 hrs) is given as “more LDH release compared to the vehicle”. For the same compound, the IC50 in series [1] is 0.7 µg/mL (≈ 2.11 µM); in series [2], 1.4 µg/mL (≈ 4.23 µM); in series [3], 2 µg/mL (≈ 6.04 µM).
For the compound `N#CC1=C(N)Oc2c(N)cc3ccccc3c2C1c1ccc(F)cc1` (stereo not drawn) [4a, 3,5-diamino-1-(4-fluorophenyl)-1H-benzo[f]chromene-2-carbonitrile], the melting point was 193 °C. Besides, the “LDH release more than vehicle” value in series [4] (10 µM, 24 hrs of incubation) is 2-3 folds. Besides, the IC50 in series [1] was 0.3 µg/mL (≈ 0.905 µM). In addition, the IC50 in series [2] worked out at 1 µg/mL (≈ 3.02 µM). The IC50 in series [3] came out at 1 µg/mL (≈ 3.02 µM).
The compound `COc1ccc(N=Nc2cc3c(cc2O)OC(N)=C(C#N)C3c2ccc(F)cc2)cc1` (stereo not drawn) [13b, 2-Amino-4-(4-fluoro-phenyl)-7-hydroxy-6-(4-methoxy-phenylazo)-4H-chromene-3-carbonitrile] returned a melting point of 272 °C. The IC50 in series [1] turned out to be 5.4 µg/mL (≈ 13 µM). The IC50 in series [2] was 3.78 µg/mL (≈ 9.08 µM). The IC50 in series [3] was 2.41 µg/mL (≈ 5.79 µM).
For `Cc1ccc(C2C(C#N)=C(N)Oc3c(N)cc4ccccc4c32)cc1` (stereo not drawn) [4c, 3,5-diamino-1-(p-tolyl)-1H-benzo[f]chromene-2-carbonitrile], the melting point came out at 180 °C. The “LDH release” value in series [4] (10 µM, 24 hrs of incubation) was “reduced the LDH release”. In series [4] (100 µM, 24 hrs), the “LDH release” value is “ineffective”. The IC50 in series [1] is 0.3 µg/mL (≈ 0.916 µM). In series [2], the IC50 worked out at 0.8 µg/mL (≈ 2.44 µM). Also, the IC50 in series [3] stood at 1.1 µg/mL (≈ 3.36 µM).
